# Earlier results as cited in US20130289102A1, “AMYRIS ALCOHOL AND ITS ESTER FOR TREATING ACNE” (Trinity Laboratories, Inc., priority 2010, published 2013).
# Legend:
# [1] = mouse, in vivo, po
# estrogenic activity = conditions: among the known phytoestrogens
# [2] = up to 292 mg/kg over 1 to 3 months
# cyclooxygenase = conditions: 6.25 μg/ml, with respect to the control
# [3] = test system: UVB-induced pigmented skins
# creatine kinase activity = conditions: rat uterus, epiphyseal cartilage, diaphyseal bone, aorta, left ventricle of the heart
# human estrogen receptor = target: T1, human estrogen receptor (Homo sapiens, UniProt P03372)
# T1 sequence (P03372 1-595): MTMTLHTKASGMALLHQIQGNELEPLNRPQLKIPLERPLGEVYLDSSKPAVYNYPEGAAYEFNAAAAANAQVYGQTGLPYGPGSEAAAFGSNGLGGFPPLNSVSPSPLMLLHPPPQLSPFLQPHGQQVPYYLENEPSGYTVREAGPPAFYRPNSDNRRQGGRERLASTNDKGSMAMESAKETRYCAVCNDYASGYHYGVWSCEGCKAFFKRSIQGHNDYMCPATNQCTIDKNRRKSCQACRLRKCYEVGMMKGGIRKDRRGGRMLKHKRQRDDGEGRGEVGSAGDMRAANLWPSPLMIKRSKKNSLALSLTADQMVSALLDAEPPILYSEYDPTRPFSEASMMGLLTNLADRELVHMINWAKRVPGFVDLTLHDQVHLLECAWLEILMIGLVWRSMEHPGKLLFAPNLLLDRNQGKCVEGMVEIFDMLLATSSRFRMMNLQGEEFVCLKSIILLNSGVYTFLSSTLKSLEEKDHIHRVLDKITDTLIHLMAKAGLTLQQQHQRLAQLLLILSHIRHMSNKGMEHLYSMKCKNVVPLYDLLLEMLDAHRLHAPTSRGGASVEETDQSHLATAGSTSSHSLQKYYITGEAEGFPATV
# [4] = test system: superoxide anion production; conditions: 0.33 μg/ml to 33.3 μg/ml
# [5] = target: presynaptic omega-agatoxin IVA-sensitive (P/Q-type) Ca^2+ channel (Rattus norvegicus, UniProt P54282)
# presynaptic omega-agatoxin IVA-sensitive (P/Q-type) Ca^2+ channel, sequence (P54282 whole entry): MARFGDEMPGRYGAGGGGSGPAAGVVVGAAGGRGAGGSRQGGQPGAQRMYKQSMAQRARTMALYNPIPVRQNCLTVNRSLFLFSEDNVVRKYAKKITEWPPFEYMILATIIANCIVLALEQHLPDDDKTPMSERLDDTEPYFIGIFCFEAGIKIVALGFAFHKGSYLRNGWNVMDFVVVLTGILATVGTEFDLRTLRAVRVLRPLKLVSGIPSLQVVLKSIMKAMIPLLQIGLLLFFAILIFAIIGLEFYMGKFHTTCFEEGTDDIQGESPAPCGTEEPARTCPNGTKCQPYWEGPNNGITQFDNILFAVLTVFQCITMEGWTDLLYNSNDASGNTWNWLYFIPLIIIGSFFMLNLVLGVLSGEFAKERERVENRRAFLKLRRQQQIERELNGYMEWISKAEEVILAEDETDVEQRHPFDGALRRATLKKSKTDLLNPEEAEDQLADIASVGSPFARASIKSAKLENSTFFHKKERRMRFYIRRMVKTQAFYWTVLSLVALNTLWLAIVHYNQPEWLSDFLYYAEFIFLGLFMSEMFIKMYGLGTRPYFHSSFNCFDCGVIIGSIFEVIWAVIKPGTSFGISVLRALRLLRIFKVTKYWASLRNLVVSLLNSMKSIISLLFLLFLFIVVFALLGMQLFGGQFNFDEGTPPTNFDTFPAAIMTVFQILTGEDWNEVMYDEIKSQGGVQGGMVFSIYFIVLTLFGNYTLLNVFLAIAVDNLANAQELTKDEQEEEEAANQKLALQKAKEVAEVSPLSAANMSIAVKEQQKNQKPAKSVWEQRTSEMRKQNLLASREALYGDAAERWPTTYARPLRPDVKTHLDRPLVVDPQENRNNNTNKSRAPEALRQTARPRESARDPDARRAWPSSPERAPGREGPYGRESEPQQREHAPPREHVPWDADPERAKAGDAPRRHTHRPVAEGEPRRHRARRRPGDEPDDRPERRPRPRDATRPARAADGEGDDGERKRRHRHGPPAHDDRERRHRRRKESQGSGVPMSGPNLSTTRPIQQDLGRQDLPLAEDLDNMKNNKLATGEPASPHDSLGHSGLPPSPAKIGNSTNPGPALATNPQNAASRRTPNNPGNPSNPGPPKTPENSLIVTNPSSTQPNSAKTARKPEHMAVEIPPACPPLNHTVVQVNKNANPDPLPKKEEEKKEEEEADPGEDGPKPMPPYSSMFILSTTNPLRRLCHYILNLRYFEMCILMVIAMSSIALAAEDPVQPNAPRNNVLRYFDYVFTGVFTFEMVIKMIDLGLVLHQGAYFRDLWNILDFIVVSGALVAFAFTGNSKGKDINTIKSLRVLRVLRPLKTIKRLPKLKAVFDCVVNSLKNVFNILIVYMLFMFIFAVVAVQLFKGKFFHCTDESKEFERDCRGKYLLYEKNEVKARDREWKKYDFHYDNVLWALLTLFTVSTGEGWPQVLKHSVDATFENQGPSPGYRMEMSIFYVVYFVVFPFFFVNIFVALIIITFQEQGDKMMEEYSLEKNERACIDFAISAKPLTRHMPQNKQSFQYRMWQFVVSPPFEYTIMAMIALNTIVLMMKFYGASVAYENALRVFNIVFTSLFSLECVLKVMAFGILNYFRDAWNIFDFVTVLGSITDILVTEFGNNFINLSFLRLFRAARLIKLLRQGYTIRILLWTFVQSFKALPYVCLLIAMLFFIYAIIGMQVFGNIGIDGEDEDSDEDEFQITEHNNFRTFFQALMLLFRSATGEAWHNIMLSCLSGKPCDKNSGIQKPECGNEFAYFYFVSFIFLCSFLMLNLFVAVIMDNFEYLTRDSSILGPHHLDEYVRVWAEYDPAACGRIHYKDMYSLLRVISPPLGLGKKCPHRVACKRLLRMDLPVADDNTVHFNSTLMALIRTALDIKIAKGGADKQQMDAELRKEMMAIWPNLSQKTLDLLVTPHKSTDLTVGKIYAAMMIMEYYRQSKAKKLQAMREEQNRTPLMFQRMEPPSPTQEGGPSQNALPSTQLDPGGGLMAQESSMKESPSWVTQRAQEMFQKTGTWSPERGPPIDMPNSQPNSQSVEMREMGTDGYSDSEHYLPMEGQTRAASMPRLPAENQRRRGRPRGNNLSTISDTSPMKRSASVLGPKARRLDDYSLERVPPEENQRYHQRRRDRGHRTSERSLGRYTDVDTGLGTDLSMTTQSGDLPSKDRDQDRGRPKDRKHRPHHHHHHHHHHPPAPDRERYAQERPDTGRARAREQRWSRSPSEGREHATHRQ
# [6] = test system: post-ischemic brain injury; conditions: focal ischemia in rats
# neurogenic inflammation = conditions: following electrical stimulation of rat trigeminal ganglion
# [7] = target: T2, nicotinic ACh receptor channel (Mus musculus, UniProt P02716+P04756+P09690+P20782)
# T2 construct: the nicotinic acetylcholine receptor channel in mouse skeletal muscles; host or cells: mouse skeletal muscle
# T2 sequence (P04756 21-457): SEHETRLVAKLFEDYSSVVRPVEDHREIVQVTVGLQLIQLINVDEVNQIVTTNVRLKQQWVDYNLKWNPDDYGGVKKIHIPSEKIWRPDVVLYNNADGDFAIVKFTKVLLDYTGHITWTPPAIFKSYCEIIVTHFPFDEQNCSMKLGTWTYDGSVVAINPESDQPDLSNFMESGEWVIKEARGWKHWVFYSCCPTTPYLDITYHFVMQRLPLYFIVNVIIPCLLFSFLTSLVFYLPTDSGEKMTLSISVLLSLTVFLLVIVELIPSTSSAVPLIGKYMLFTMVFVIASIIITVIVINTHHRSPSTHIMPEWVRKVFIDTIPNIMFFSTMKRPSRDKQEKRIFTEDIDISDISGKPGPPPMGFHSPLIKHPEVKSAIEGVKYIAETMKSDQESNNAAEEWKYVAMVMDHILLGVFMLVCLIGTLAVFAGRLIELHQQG
# T2 sequence (P09690 24-501): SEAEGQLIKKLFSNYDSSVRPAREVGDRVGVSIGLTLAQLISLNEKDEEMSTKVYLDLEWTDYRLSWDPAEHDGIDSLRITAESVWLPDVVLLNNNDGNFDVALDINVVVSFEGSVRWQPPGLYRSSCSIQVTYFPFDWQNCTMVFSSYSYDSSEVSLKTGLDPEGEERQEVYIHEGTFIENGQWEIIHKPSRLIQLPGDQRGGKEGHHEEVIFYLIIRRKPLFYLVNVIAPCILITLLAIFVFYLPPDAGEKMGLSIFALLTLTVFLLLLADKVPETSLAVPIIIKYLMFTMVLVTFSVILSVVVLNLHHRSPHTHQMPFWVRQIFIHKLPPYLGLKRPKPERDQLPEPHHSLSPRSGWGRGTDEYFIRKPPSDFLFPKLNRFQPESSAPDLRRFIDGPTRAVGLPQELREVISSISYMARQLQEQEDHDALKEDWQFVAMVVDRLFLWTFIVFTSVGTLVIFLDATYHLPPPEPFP
# T2 sequence (P02716 25-520): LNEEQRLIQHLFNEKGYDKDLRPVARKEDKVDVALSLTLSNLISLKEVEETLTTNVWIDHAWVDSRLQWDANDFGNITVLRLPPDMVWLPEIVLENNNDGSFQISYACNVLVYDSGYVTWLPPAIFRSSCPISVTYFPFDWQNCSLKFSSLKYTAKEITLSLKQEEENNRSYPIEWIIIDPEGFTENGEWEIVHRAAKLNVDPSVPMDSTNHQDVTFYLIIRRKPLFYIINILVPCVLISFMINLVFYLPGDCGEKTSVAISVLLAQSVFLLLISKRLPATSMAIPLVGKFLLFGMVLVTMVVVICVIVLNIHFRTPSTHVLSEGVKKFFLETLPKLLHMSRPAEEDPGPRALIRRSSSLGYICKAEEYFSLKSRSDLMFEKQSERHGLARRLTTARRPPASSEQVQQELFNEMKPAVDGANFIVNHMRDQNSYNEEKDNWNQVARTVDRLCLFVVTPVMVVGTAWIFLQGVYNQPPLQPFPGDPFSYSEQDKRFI
# T2 sequence (P20782 21-493): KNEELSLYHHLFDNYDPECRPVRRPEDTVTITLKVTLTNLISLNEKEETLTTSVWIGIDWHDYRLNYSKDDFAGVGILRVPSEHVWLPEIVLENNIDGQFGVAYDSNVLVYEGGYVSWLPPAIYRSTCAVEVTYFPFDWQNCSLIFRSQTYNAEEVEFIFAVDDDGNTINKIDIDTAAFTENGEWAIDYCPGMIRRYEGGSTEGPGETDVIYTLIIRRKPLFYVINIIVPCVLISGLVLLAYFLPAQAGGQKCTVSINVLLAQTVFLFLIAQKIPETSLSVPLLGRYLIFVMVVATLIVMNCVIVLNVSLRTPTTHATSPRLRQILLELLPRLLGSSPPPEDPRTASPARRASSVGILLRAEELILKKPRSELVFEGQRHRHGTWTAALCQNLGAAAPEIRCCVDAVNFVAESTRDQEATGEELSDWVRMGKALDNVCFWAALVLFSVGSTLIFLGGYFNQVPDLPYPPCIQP
# angiogenesis = conditions: mice
# Na^+, K(+)-ATPase = conditions: compared with other phosphatases examined
# [8] = test system: porcine brain microvascular endothelial cells; conditions: 50-100 microM
# [9] = test system: extracellular signal-regulated kinase (ERK) 1/2; conditions: 100 microM
# [10] = test system: human umbilical vein endothelial cells (HUVEC)
structure (smiles),measurement,setting,value
C[C@@H]1CC[C@H]2[C@@H](C)C(=O)O[C@@H]3O[C@@]4(C)CC[C@@H]1[C@]32OO4 [Artemisinin],LD50,[1],4228 mg/kg
CC1(C)[C@H]2C(=COc3cc(O)ccc32)[C@@H]2C(=O)C[C@]3(O)C[C@H]1[C@H]2[C@H]3O [Deoxymiroestrol],estrogenic activity,estrogenic activity,highest estrogenic activity among the known phytoestrogens
CC1(C)[C@H]2C(=COc3cc(O)ccc32)[C@]2(O)C(=O)C[C@]3(O)C[C@H]1[C@H]2[C@H]3O [Miroestrol],estrogenic activity,estrogenic activity,highest estrogenic activity among the known phytoestrogens
CO[C@H]1O[C@@H]2O[C@@]3(C)CC[C@H]4[C@H](C)CC[C@@H]([C@H]1C)[C@@]24OO3 [artemether],toxicity in monkeys,[2],no toxicity
"CC1(C)C=Cc2c(ccc3c2OC[C@@H](c2ccc(O)cc2O)C3)O1 [glabridin, Glabridin]","effect on growth of breast tumor cells, low concentrations","breast tumor cells; 10 nM-10 μM, estrogen receptor-dependent",growth-promoting effect
same,"effect on growth of breast tumor cells, high concentrations","breast tumor cells; >15 μM, estrogen receptor-independent",antiproliferative activity
same,cyclooxygenase activity,cyclooxygenase,inhibited the cyclooxygenase activity
same,pigmentation induced by UVB radiation,"[3]; 0.5% solution, topical, backs of brownish guinea pigs",significantly reduced pigmentation
same,inflammation induced by UVB irradiation,"[3]; 0.5% solution, topical, guinea pig skin",decreased the inflammation
same,DOPA-positive melanocytes,"[3]; treated skin, epidermal histology",reduced in number
same,creatine kinase activity,creatine kinase activity,stimulating creatine kinase activity
same,binding to estrogen receptor,human estrogen receptor,binding to the human estrogen receptor
same,superoxide (active oxygen) formation,[4],inhibited superoxide (active oxygen) formation
CC1=CCC[C@]2(C)CC[C@@H](C(C)(C)O)C[C@@H]12 [α-eudesmol],inhibition of P/Q-type Ca2+ channel,[5],potently inhibits
same,post-ischemic brain injury,[6],attenuates post-ischemic brain injury
same,inhibition of neurogenic inflammation,neurogenic inflammation,potently inhibits
C=C1CCC[C@]2(C)CC[C@@H](C(C)(C)O)C[C@@H]12 [β-eudesmol],desensitization of the nicotinic ACh receptor,[7],accelerated the desensitization
same,nicotinic ACh receptor channel block,[7]; mouse skeletal muscles,blocked the nicotinic ACh receptor channel in both the open and closed conformations
same,angiogenesis in adjuvant-induced granuloma,angiogenesis,significantly inhibited angiogenesis
same,angiogenesis in subcutaneously implanted Matrigel plugs,angiogenesis,significantly inhibited angiogenesis
same,"inhibition of Na+,K+-ATPase activity","Na^+, K(+)-ATPase",most strongly among the various kinds of phosphatases examined
same,neurite extension,PC-12 cells; 100 and 150 μM,significantly induced neurite extension
same,[3H]thymidine incorporation,PC-12 cells; at the highest concentration (150 μM),suppression of [^3H]thymidine incorporation
same,proliferation of porcine brain microvascular endothelial cells,[8],inhibited
same,phosphorylation of ERK 1/2 induced by bFGF or vascular endothelial growth factor,[9],blocked the phosphorylation
same,HUVEC migration stimulated by bFGF,[10],inhibited the HUVEC migration
same,tube formation by HUVEC in Matrigel,[10],inhibited
same,proliferation of HUVEC,[10]; 50-100 microM,inhibited
